Measured values as given in patent publication US20050222253A1, “Anti-cancer nitro- and thia-fatty acids” (priority 1999, published 2005).
Entries after “also recorded” stand apart in the source; their conditions may differ.

Legend:
[1] = target: 5-LO (Solanum tuberosum, UniProt P37831); test: Effect on 5-LO catalysed oxidation of arachidonic acid; format: biochemical; conditions: preliminary experiment, purified enzyme, result in words
Protocol: Based on this consideration, 5-LO, 12-LO and 15-LO catalysed oxidation of the nitro compounds (4a, 4b, 6a, 6b, 8a and 8b) was investigated. Each of the nitro compounds was treated with 15-LO in pH 9.0 buffer (or 5-LO in pH 6.3 buffer and 12-LO in pH 7.4 buffer), and the formation of 15-hydroperoxy derivatives (or 5-hydroperoxy or 12-hydroperoxy derivatives) over time was monitored by LW spectroscopy at 234 nm. […]

[2] = target: T1, 15-LO (Glycine max, UniProt P08170); test: Effect on 15-LO catalysed oxidation of arachidonic acid; format: biochemical, soybean; conditions: preliminary experiment, result in words
T1 construct: purchased Sigma Chemical Company
T1 sequence (P08170 1-839): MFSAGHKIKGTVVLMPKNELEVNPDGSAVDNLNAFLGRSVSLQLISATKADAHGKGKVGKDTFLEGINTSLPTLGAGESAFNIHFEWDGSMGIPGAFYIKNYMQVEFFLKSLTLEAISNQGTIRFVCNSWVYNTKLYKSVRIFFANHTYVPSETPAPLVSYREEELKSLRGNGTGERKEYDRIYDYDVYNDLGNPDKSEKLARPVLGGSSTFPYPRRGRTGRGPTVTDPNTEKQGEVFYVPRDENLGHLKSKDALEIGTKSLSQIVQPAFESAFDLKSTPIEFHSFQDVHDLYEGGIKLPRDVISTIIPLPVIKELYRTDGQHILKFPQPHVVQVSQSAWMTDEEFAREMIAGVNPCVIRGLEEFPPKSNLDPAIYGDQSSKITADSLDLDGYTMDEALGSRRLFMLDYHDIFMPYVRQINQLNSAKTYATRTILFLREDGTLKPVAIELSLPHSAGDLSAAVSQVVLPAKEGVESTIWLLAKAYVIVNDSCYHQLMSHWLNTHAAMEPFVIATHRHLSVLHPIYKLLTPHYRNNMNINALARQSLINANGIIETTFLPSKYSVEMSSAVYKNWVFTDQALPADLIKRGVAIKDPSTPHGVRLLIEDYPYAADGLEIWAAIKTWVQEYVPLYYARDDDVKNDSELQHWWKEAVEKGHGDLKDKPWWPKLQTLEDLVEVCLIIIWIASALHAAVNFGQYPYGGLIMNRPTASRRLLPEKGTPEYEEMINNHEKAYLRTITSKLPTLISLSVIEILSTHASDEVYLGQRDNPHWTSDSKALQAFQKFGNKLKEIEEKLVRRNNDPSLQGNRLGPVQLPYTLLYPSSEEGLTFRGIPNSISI

[3] = target: T2, 12-LO (Sus scrofa, UniProt P16469); test: Effect on 12-LO catalysed oxidation of arachidonic acid; format: biochemical, porcine; conditions: preliminary experiment, result in words
T2 construct: purchased Cayman Chemical Company
T2 sequence (P16469 1-663): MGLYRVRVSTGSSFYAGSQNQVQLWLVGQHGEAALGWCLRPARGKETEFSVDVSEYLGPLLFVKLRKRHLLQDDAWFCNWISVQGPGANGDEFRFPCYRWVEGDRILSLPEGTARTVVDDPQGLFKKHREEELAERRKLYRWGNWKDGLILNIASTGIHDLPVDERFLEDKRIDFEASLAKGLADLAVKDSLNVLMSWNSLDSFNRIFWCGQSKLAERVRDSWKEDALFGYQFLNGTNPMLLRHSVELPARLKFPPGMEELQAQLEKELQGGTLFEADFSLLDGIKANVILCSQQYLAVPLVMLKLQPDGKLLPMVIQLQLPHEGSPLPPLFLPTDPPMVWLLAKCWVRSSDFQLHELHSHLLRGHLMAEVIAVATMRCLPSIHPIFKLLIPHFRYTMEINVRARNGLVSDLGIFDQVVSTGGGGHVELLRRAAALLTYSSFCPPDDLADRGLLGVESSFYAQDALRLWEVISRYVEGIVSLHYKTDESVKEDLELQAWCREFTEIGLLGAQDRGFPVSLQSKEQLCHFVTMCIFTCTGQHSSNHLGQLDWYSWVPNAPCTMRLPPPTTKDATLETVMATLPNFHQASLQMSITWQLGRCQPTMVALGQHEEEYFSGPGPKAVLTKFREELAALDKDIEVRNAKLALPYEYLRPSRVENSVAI
Protocol: Based on this consideration, 5-LO, 12-LO and 15-LO catalysed oxidation of the nitro compounds (4a, 4b, 6a, 6b, 8a and 8b) was investigated. Each of the nitro compounds was treated with 15-LO in pH 9.0 buffer (or 5-LO in pH 6.3 buffer and 12-LO in pH 7.4 buffer), and the formation of 15-hydroperoxy derivatives (or 5-hydroperoxy or 12-hydroperoxy derivatives) over time was monitored by LW spectroscopy at 234 nm.
A number of Lx compounds were tested for anti 5-LOX and 12-LOX activities in the human breast cancer cell line, MCF-7. […] The ability of 5-LOX and 12-LOX to produce oxidated products of 20:4n-6 with a different absorption wavelength in the presence of nitroso-PUFA was examined and is shown in the progress curves in FIG. 6. […] Within cells, activation of 5-LOX is facilitated by 5-LOX activating protein (FLAP). Thus, in intact cells, Lx7 and Lx9 may be able to activate 5-LOX at lower concentrations than those required in the purified enzyme system shown in FIG. 6. […] By being able to activate 5-LOX and suppress 12-LOX, these compounds have the desired characteristics of anti-breast cancer agents as discussed previously.
15-LO was obtained from Sigma Chemical Company, and 12-LO from Cayman Chemical Company. Arachidonic acid 1, linolenyl alcohol 57a, gamma linolenyl alcohol 5b, arachidonyl alcohol 57c and docosahexaenyl alcohol 57d were purchased from Nu-Chek Prep. Inc. Elysian, Minn., USA. Other chemicals were commercially available from Aldrich Chemical Company.

[4] = system: DU145 cells; test: DU145 tumour cell survival (MTS cell proliferation assay); format: cell-based, human; conditions: for Anti tumour effect on DU145 tumour cells: various concentrations and times (FIGS. 1, 2); for DU145 cell survival, screening test: 20 μM fatty acid, 24 hrs, MTS (FIG. 4); for DU145 cell proliferation: 24 h, MTS assay (FIG. 5A)
Protocol: Lx compounds were tested for activity against two androgen insensitive prostate cancer tumour cell lines, DU145(liver metastases) and PC3(brain metastases). […] Survival was measured using the MTS cell proliferation assay.
Various concentrations for varying amounts of time of Lx compounds were added to either DU145 or PC3 tumour cells in culture. Viability/death of tumour cells was measured by a standard colourimetric assay. […] It is also evident from the results (FIG. 2) that the saturated nitro compound Lx1 (19:0-NO2) is not active and neither is MP2 (β-thia 23:0), a saturated […] fatty acid. […] In a further screening test, the human prostate cell line, DU145 cells (liver metastases), was treated for 24 hrs with 20 μM Fatty Acid and cell survival was measured using the MTS cell proliferation assay. This assay uses colourimetric measurement of substrate conversion to formazan which occurs only in the presence of NADH in a metabolically active cell. There was varied anti-tumour activity amongst the different types of PUFA.
(§1) DU145 cells were treated with PUFA and incubated for 24 h (for the proliferation assay), 4 h (for the caspase assay) and for 18 h (for PARP cleavage).
(§2) Proliferation was quantitated by MTS assay. Caspases 3 and 7 were assayed by a fluorometric assay using a […] substrate. PARP cleavage was measured by Western blots using an anti PARP antibody.

[5] = system: MCF-7 cells; test: Killing of MCF-7 breast cancer cells in vitro; format: cell-based, human; conditions: in vitro (FIG. 7); compared with 20:4n-6 toxicity
Text: While interference with 5-LOX or 12-LOX activity individually impacts on growth rates of human breast cancer MCF-7 cells^(55,56), the simultaneous modification of the activities of both enzymes at once may cause death. […] Lx4, a nitroso-compound with the same number of carbon atoms and degree of unsaturation as Lx9 but lacking a COOH group, was ineffective (FIG. 7).

[6] = system: PARP; test: PARP cleavage by Western blot in DU145 cells; format: cell-based, human; conditions: 18 h, anti PARP antibody (FIG. 5C)
Protocol: as §1, §2

[7] = system: Caspases 3 and 7; test: Caspase 3 and 7 fluorometric assay in DU145 cells; format: cell-based, human; conditions: for Activation of caspases: DU145 cells, 4 h (FIG. 5B); for Induction of apoptosis in DU145 cells: concluded from caspase activation and PARP cleavage
Protocol: as §1, §2

5-LO, sequence (P37831 whole entry): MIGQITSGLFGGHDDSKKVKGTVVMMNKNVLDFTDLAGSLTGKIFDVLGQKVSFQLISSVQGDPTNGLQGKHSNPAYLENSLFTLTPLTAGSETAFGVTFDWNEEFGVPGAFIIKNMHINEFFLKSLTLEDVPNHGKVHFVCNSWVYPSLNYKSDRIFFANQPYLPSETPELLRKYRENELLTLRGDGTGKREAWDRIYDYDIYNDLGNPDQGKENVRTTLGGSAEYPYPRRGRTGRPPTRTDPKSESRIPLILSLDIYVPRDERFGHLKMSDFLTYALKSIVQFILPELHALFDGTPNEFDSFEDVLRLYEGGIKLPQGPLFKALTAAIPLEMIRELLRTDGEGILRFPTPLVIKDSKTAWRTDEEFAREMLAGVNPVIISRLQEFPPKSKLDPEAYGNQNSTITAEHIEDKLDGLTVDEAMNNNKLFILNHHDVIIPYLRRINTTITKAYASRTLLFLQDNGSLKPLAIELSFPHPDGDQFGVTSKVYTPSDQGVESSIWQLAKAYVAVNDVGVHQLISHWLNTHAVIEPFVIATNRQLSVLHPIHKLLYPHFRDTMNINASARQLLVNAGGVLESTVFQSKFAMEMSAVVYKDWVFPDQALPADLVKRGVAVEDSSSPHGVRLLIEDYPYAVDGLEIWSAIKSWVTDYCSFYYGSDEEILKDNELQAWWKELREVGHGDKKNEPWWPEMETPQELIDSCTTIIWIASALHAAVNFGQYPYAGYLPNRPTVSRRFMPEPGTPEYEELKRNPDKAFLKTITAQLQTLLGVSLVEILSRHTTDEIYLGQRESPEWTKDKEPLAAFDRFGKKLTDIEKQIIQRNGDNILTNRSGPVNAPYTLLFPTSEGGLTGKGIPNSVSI

Compound: CCCCCCCCCCCCCC[S+]([O-])CCC(=O)O (stereo not drawn) [Compound 113, 3-(tetradecylsulfinyl) propionic acid]
- melting point: 166 to 167 °C

Compound: CCCCCCCCCCCCCCCCCC[N+](=O)[O-] [Lx1, 1-Nitrooctadecane]
- Effect on 5-LO catalysed oxidation of AA [1]: Nil
- Effect on 15-LO catalysed oxidation of AA [2]: Nil
- Effect on 12-LO catalysed oxidation of AA [3]: Nil
- Anti tumour effect on DU145 tumour cells [4]: not active

Compound: CC/C=C\C/C=C\C/C=C\CCCCCCCC[N+](=O)[O-] [Lx2, (z,z,z)-1-Nitro-9,12,15-octadecatriene]
- Effect on 15-LO catalysed oxidation of AA [2]: Nil

Compound: CCCCC/C=C\C/C=C\C/C=C\CCCCC[N+](=O)[O-] [Lx3, (z,z,z)-1-Nitro-6,9,12-octadecatriene]
- Effect on 15-LO catalysed oxidation of AA [2]: Nil

Compound: CCCCC/C=C\C/C=C\C/C=C\C/C=C\CCCC[N+](=O)[O-] [Lx4, (all-z)-1-Nitro-5,8,11,14-eicosatetraene]
- Effect on 5-LO catalysed oxidation of AA [1]: Nil
- Effect on 15-LO catalysed oxidation of AA [2]: Nil
- Effect on 12-LO catalysed oxidation of AA [3]: Nil
- Killing of MCF-7 tumour cells [5]: ineffective

Compound: CC/C=C\C/C=C\C/C=C\C/C=C\C/C=C\C/C=C\CCC[N+](=O)[O-] [Lx5, (all-z)-1-Nitro-4,7,10,13,16,19-docosahexaene]
- Effect on 15-LO catalysed oxidation of AA [2]: Nil

Compound: CCCCCCCCCCCCCCCCCC(CCC(=O)O)[N+](=O)[O-] (stereo not drawn) [Lx6, 4-Nitrohenicosanoic acid]
- Effect on 5-LO catalysed oxidation of AA [1]: Inhibitory
- Effect on 5-LO catalysed oxidation of AA ([1]; listed as 4-nitrohenicosanoic acid): selective inhibitors
- Effect on 5-LO catalysed oxidation of AA ([1]; listed as 6a): inhibiting 5-LO
- Effect on 15-LO catalysed oxidation of AA [2]: Activatory
- Effect on 15-LO catalysed oxidation of AA ([2]; listed as 6a): not 15-LO
- Effect on 12-LO catalysed oxidation of AA [3]: Activatory
- Killing of DU145 tumour cells ([4]; 15 μM, after 24 hours of culture (FIG. 2)): killing of all the tumour cell population
- Anti tumour effect on DU145 tumour cells [4]: concentration and time related effects

Compound: CCCCC/C=C\C/C=C\C/C=C\C/C=C\CCCC(CCC(=O)O)(CCC(=O)O)[N+](=O)[O-] [Lx9, 3-[(all-Z)-Nonadeca-4,7,10,13-tetraenyl]-3-nitropentane-1,5-dicarboxylic acid]
- Effect on 5-LO catalysed oxidation of AA [1]: can activate 5-LOX; also recorded: Activatory
- Effect on 15-LO catalysed oxidation of AA [2]: Nil
- Effect on 12-LO catalysed oxidation of AA [3]: direct, potent and rapid inhibitor of 12-LOX; also recorded: Inhibitory
- Effect on 12-LO catalysed oxidation of AA ([3]; listed as 3-(all-Z)-nonadeca-4,7,10,13-tetraenyl]-3-nitropentane-1,5-dicarboxylic acid): selective inhibitors
- Effect on 12-LO catalysed oxidation of AA ([3]; listed as 8b): significant inhibitory effect
- Killing of MCF-7 tumour cells [5]: kill these tumour cells

Compound: CCCCC/C=C\C/C=C\C/C=C\C/C=C\CCCCOCC(=O)O [MP3]
- DU145 cell survival, screening test [4]: highly active
- DU145 cell proliferation [4]: marked inhibition of cell proliferation
- PARP cleavage [6]: cleavage of PARP
- Activation of caspases [7]: activation of caspases
- Induction of apoptosis in DU145 cells [7]: induce apoptosis

Compound: CC/C=C\C/C=C\C/C=C\CCCCCCCCOCC(=O)O [MP5, (Z,Z,Z)-(octadeca-9,12,15-trienyloxy) acetic acid]
- DU145 cell proliferation [4]: marked inhibition of cell proliferation
- PARP cleavage [6]: cleavage of PARP
- Activation of caspases [7]: activation of caspases
- Induction of apoptosis in DU145 cells [7]: induce apoptosis

Compound: CCC=CCC=CCC=CCC=CCC=CCC=CCCCOCC(=O)O [MP6]
- DU145 cell survival, screening test [4]: most active

Compound: CCCCC/C=C\C/C=C\C/C=C\C/C=C\CCCCSCC(=O)O [MP8, (all-Z)-(eicosa-5,8,11,14-tetraenylthio) acetic acid]
- DU145 cell survival, screening test [4]: highly active

Compound: CCCCC/C=C\C/C=C\C/C=C\CCCCCSCC(=O)O [MP9]
- DU145 cell survival, screening test [4]: most active

Compound: CCC=CCC=CCC=CCCCCCCCCSCC(=O)O [MP10]
- DU145 cell survival, screening test [4]: most active

Compound: CCCCC/C=C\C/C=C\C/C=C\CCCCCSCCC(=O)O [MP12]
- DU145 cell survival, screening test [4]: most active

Compound: CC/C=C\C/C=C\C/C=C\CCCCCCCCSCCC(=O)O [MP13, 3-[(Z,Z,Z)-(octadeca-9,12,15-trienylthio)]propionic acid]
- DU145 cell survival, screening test [4]: highly active

Compound: CC/C=C\C/C=C\C/C=C\C/C=C\C/C=C\C/C=C\CCC(=O)NCC(=O)O [PTS]
- DU145 cell survival, screening test [4]: some activity
